Laboratory results taken from ChEMBL document CHEMBL2074407, “Identification of thyroid hormone transporters” (Biochem Biophys Res Commun, 1999).
Where a name gives a salt, the structure may show the parent alone.

Legend:
[1] = biological target: T1, Hepatic sodium/bile acid cotransporter (Rattus norvegicus, UniProt P26435); experiment: (§1) TP_TRANSPORTER: uptake in Xenopus laevis oocytes; type: functional, cell-based; conditions: oocyte
T1 sequence (P26435 whole entry): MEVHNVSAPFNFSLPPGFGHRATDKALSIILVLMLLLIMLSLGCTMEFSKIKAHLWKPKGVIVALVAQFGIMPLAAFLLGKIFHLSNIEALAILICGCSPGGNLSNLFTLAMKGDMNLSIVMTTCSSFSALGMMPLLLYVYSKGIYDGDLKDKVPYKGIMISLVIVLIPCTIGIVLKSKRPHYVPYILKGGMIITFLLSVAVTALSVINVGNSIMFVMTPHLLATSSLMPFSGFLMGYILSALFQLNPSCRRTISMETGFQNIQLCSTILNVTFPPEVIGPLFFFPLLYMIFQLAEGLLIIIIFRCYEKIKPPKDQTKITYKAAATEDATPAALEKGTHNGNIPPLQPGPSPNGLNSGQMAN

[2] = biological target: T2, Solute carrier organic anion transporter family member 1A1 (Rattus norvegicus, UniProt P46720); experiment: as §1; type: functional, cell-based; conditions: oocyte
T2 sequence (P46720 whole entry): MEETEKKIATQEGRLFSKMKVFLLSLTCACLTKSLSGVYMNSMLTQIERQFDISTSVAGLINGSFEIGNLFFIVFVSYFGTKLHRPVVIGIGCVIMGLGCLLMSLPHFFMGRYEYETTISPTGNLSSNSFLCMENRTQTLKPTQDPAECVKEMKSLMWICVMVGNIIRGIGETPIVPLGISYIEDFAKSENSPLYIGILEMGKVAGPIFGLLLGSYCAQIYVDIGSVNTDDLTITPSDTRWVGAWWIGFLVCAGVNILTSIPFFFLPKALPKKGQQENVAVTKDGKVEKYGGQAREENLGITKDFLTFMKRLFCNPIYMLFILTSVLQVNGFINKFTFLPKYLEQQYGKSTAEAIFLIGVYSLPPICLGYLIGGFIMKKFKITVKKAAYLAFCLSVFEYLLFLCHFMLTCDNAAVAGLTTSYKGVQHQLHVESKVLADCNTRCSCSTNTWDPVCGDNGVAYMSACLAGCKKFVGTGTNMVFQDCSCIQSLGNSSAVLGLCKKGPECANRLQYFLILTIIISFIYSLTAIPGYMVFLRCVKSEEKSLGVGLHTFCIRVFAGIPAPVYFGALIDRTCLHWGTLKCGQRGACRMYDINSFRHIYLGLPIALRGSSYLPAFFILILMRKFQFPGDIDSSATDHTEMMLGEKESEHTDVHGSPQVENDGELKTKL

SMILES | Activity [1] | Activity [2]
N[C@@H](Cc1cc(I)c(Oc2cc(I)c(O)c(I)c2)c(I)c1)C(=O)O [LEVOTHYROXINE] | substrate [+] | substrate [+]
NC(Cc1ccc(Oc2ccc(OS(=O)(=O)O)c(I)c2)c(I)c1)C(=O)O (stereo not drawn) [DIIODOTHYRONINE SULFATE] | substrate [+] | substrate [+]
NC(Cc1cc(I)c(Oc2cc(I)c(OS(=O)(=O)O)c(I)c2)c(I)c1)C(=O)O (stereo not drawn) [THYROXINE SULFATE] | substrate [+] | substrate [+]
N[C@@H](Cc1ccc(Oc2cc(I)c(O)c(I)c2)c(I)c1)C(=O)O [REVERSE TRIIODOTHYRONINE] | substrate [+] | substrate [+]
NS(=O)(=O)O.N[C@@H](Cc1cc(I)c(Oc2ccc(O)c(I)c2)c(I)c1)C(=O)O [TRIIODOTHYRONINE SULFAMATE] | – | substrate [+]
N[C@@H](Cc1cc(I)c(Oc2ccc(O)c(I)c2)c(I)c1)C(=O)O [LIOTHYRONINE] | substrate [+] | substrate [+]
NS(=O)(=O)O.N[C@@H](Cc1cc(I)c(Oc2cc(I)c(O)c(I)c2)c(I)c1)C(=O)O [THYROXINE SULFAMATE] | – | substrate [+]
N[C@@H](Cc1ccc(Oc2cc(I)c(O)c(I)c2)c(I)c1)C(=O)O.O=S(=O)(O)O [REVERSE TRIIODOTHYRONINE(RT3) SULFATE] | substrate [+] | substrate [+]
NC(Cc1ccc(Oc2ccc(O)c(I)c2)c(I)c1)C(=O)O (stereo not drawn) [DIIODOTHYRONINE] | substrate [+] | substrate [+]
N[C@@H](Cc1cc(I)c(Oc2ccc(OS(=O)(=O)O)c(I)c2)c(I)c1)C(=O)O [TRIIODOTHYRONINE SULFATE] | substrate [+] | substrate [+]
